Experiments:
[1] = system: rabbit serum obtained by immunizing a rabbit with the SARS-CoV strain Frankfurt 1; assay type: binding; design: Binding of a rabbit serum to linear peptides / Binding of a rabbit serum to looped peptides / Rabbit serum linear peptides / Rabbit serum looped peptides / Binding of a rabbit serum to linear peptides of protein N of SARS-CoV Urbani (Rabbit serum linear peptides) / Binding of a rabbit serum to looped/cyclic peptides of protein N of SARS-CoV Urbani (Rabbit serum looped peptides): unit not given here
[2] = system: control sera (pooled serum of ten healthy LUMC hospital workers; commercial negative donor pooled serum from the Dutch bloodbank); assay type: binding, human; design: Binding of Control serum LUMC to linear peptides / Binding of Control serum Blood-bank to linear peptides / Binding of Control serum LUMC to looped peptides / Binding of Control Serum Blood-Bank to Looped peptides / Binding of Control serum LUMC to linear peptides of the protein M of SARS-CoV Urbani / Binding of Control serum Blood-bank to linear peptides of the protein M of SARS-CoV Urbani / Binding of Control serum LUMC to looped peptides of the protein M of SARS-CoV Urbani / Binding of Control Serum Blood-Bank to Looped peptides of the protein M of SARS-CoV Urbani: unit not given here
[3] = system: antibodies in sera from SARS patients (sera 1a, 1b, 2, 6, 37, 62, London, SARS-yellow, SARS-green); assay type: binding, human; design: Binding of serum 6 to linear peptides of protein X1 of SARS-CoV Urbani / Binding of serum 37 to linear peptides of protein X1 of SARS-CoV Urbani / Binding of serum 6 to looped/cyclic peptide (PEPSCAN-ELISA) / Binding of serum 37 to looped/cyclic peptide (PEPSCAN-ELISA) / Binding of serum 37 to looped/cyclic peptides of protein X1 of SARS-CoV Urbani / Binding of serum 6 to linear peptides of protein X2 / Binding of serum 37 to linear peptides of protein X2 / Binding of serum 37 to looped/cyclic peptides of protein X2 of SARS-CoV Urbani / Binding of serum 6 to linear peptides of protein M of SARS-CoV Urbani / Binding of serum 37 to linear peptides of protein M of SARS-CoV Urbani / Binding of serum 6 to looped/cyclic peptides of protein M of SARS-CoV Urbani / Binding of serum 37 to looped/cyclic peptides of protein M of SARS-CoV Urbani / Binding of serum 6 to linear peptides of protein X3 of SARS-CoV Urbani / Binding of serum 37 to linear peptides of protein X3 of SARS-CoV Urbani / Binding of serum 37 to looped/cyclic peptides of protein X3 of SARS-CoV Urbani / Binding of serum 6 to linear peptides of protein X4 of SARS-CoV Urbani / Binding of serum 37 to linear peptides of protein X4 of SARS-CoV Urbani / Binding of serum 37 to looped/cyclic peptides of protein X4 of SARS-CoV Urbani / Binding of serum 6 to linear peptides of protein X5 of SARS-CoV Urbani / Binding of serum 37 to linear peptides of protein X5 of SARS-CoV Urbani / Binding of serum 37 to looped/cyclic peptides of protein X5 of SARS-CoV Urbani / Binding of serum 6 to linear peptides of protein N of SARS-CoV Urbani / Binding of serum 37 to linear peptides of protein N of SARS-CoV Urbani / Binding of serum 6 to linear peptide (PEPSCAN-ELISA) / Binding of serum 1a to looped/cyclic peptides of protein N of SARS-CoV Urbani / Binding of serum 1b to looped/cyclic peptides of protein N of SARS-CoV Urbani / Binding of serum 2 to looped/cyclic peptides of protein N of SARS-CoV Urbani / Binding of serum 6 to looped/cyclic peptides of protein N of SARS-CoV Urbani / Binding of serum 37 to looped/cyclic peptides of protein N of SARS-CoV Urbani / Binding of serum 62 to looped/cyclic peptides of protein N of SARS-CoV Urbani / Binding of serum London to looped/cyclic peptides of protein N of SARS-CoV Urbani / Binding of serum SARS-green to looped/cyclic peptides of protein N of SARS-CoV Urbani: unit not given here

## VATSRTLSYYKLGAS
[1]
  Rabbit serum linear peptides: 0.3
  Rabbit serum looped peptides: 0.7
[2]
  Binding of Control Serum Blood-Bank to Looped peptides of the protein M of SARS-CoV Urbani: 0.5
  Binding of Control serum Blood-bank to linear peptides of the protein M of SARS-CoV Urbani: 0.8
  Binding of Control serum LUMC to linear peptides of the protein M of SARS-CoV Urbani: 0.6
  Binding of Control serum LUMC to looped peptides of the protein M of SARS-CoV Urbani: 0.6
[3]
  Binding of serum 1a to linear peptides of protein M of SARS-CoV Urbani: 0.6
  Binding of serum 1a to looped/cyclic peptides of protein M of SARS-CoV Urbani: 0.8
  Binding of serum 1b to linear peptides of protein M of SARS-CoV Urbani: 0.5
  Binding of serum 1b to looped/cyclic peptides of protein M of SARS-CoV Urbani: 0.6
  Binding of serum 2 to linear peptides of protein M of SARS-CoV Urbani: 0.6
  Binding of serum 2 to looped/cyclic peptides of protein M of SARS-CoV Urbani: 0.7
  Binding of serum 6 to linear peptides of protein M of SARS-CoV Urbani: 0.8
  Binding of serum 6 to looped/cyclic peptides of protein M of SARS-CoV Urbani: 0.6
  Binding of serum 37 to linear peptides of protein M of SARS-CoV Urbani: 0.5
  Binding of serum 37 to looped/cyclic peptides of protein M of SARS-CoV Urbani: 0.7
  Binding of serum 62 to linear peptides of protein M of SARS-CoV Urbani: 0.5
  Binding of serum 62 to looped/cyclic peptides of protein M of SARS-CoV Urbani: 0.6
  Binding of serum London to linear peptides of protein M of SARS-CoV Urbani: 0.3
  Binding of serum London to looped/cyclic peptides of protein M of SARS-CoV Urbani: 0.2
  Binding of serum SARS-green to linear peptides of protein M of SARS-CoV Urbani: 0.4
  Binding of serum SARS-green to looped/cyclic peptides of protein M of SARS-CoV Urbani: 0.3
  Binding of serum SARS-yellow to linear peptides of protein M of SARS-CoV Urbani: 0.3
  Binding of serum SARS-yellow to looped/cyclic peptides of protein M of SARS-CoV Urbani: 0.6

## VFTSCELYHYQECVR
[1]
  Rabbit serum linear peptides: 0.5
  Rabbit serum looped peptides: 0.5
[2]
  Binding of Control Serum Blood-Bank to Looped peptides: 0.7
  Binding of Control serum Blood-bank to linear peptides: 0.7
  Binding of Control serum LUMC to linear peptides: 0.5
  Binding of Control serum LUMC to looped peptides: 0.9
[3]
  Binding of serum 1a to linear peptides of protein X4 of SARS-CoV Urbani: 0.8
  Binding of serum 1a to looped/cyclic peptides of protein X4 of SARS-CoV Urbani: 0.8
  Binding of serum 1b to linear peptides of protein X4 of SARS-CoV Urbani: 0.6
  Binding of serum 1b to looped/cyclic peptides of protein X4 of SARS-CoV Urbani: 0.7
  Binding of serum 2 to linear peptides of protein X4 of SARS-CoV Urbani: 0.4
  Binding of serum 2 to looped/cyclic peptides of protein X4 of SARS-CoV Urbani: 0.7
  Binding of serum 6 to linear peptides of protein X4 of SARS-CoV Urbani: 0.7
  Binding of serum 6 to looped/cyclic peptides of protein X4 of SARS-CoV Urbani: 0.7
  Binding of serum 37 to linear peptides of protein X4 of SARS-CoV Urbani: 0.8
  Binding of serum 37 to looped/cyclic peptides of protein X4 of SARS-CoV Urbani: 0.8
  Binding of serum 62 to linear peptides of protein X4 of SARS-CoV Urbani: 0.8
  Binding of serum 62 to looped/cyclic peptides of protein X4 of SARS-CoV Urbani: 0.7
  Binding of serum London to linear peptides of protein X4 of SARS-CoV Urbani: 0.7
  Binding of serum London to looped/cyclic peptides of protein X4 of SARS-CoV Urbani: 0.3
  Binding of serum SARS-green to linear peptides of protein X4 of SARS-CoV Urbani: 0.7
  Binding of serum SARS-green to looped/cyclic peptides of protein X4 of SARS-CoV Urbani: 0.7
  Binding of serum SARS-yellow to linear peptides of protein X4 of SARS-CoV Urbani: 0.3
  Binding of serum SARS-yellow to looped/cyclic peptides of protein X4 of SARS-CoV Urbani: 0.5

From patent US20070128217A1 (priority 2003, published 2007)
